Calls of active or inactive are those of the source.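 How the source made its calls: active means fitted half-maximal concentration for change in GFP expression of 33 µM or less; inactive means the rest.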

The nature of this test: concentration-dependent AGP1-GFP change, TOR pathway – cell-based, flow cytometry, S. cerevisiae, MLPCN hits, dose response (AID 2743). As to conditions: S. cerevisiae AGP1-GFP strain, flow cytometry GFP, 3 h; at 33 µM (top of the series). For orientation: A flow cytometer gives signals particle by particle.
As for `CCOC(=O)CSC1=NC(=O)/C(=C\c2ccc(Cl)cc2)S1`, the GFP fluorescence (kMESF) was 41.8 kMESF (inactive). Consider `CN1CCN(C(c2ccc(C(F)(F)F)cc2)c2ccc3cccnc3c2O)CC1` (stereo not drawn), for which the GFP fluorescence (kMESF) was 34 kMESF (inactive). Consider `O=C(Oc1oc(-c2ccco2)nc1C=Nc1ccccc1)c1ccco1`, for which the GFP fluorescence (kMESF) was 43.5 kMESF (inactive). As to `CC(=O)Oc1ccc(N2C(=O)C3C4C=CC(O4)C3C2=O)cc1` (stereo not drawn), the GFP fluorescence (kMESF) is 45.2 kMESF (inactive). On to `CCCCc1ccc(NC(=O)CC(C)=O)cc1`, for which the GFP fluorescence (kMESF) was 37.2 kMESF (inactive). `CCCOc1ccc(C(=O)NNC(=S)NC(=O)c2ccco2)cc1`: the GFP fluorescence (kMESF) was 50.3 kMESF (inactive). As to `Cc1ccc(S(=O)(=O)c2ncccc2[N+](=O)[O-])cc1`, the GFP fluorescence (kMESF) is 47.1 kMESF (inactive). Turning to `C[C@@]12C(=O)OC(=O)[C@]1(C)C1CCC2O1`, the GFP fluorescence (kMESF) is 32.6 kMESF (inactive). On to `O=C(NC(=S)NNC(=O)[C@H]1C[C@@H]1c1ccccc1)c1cccc(F)c1`, for which the GFP fluorescence (kMESF) is 30.4 kMESF (inactive). `COc1cc(/C=C2\C(=O)ON=C2c2ccc(Cl)cc2)ccc1O`: the GFP fluorescence (kMESF) is 33 kMESF (inactive). The same measure for `Cc1ccccc1[C@@]1(C)ON(c2ccccc2C(F)(F)F)C1=O`: 29.8 kMESF (inactive); for `CCC(=O)Nc1ccc(NC(=O)c2cc3ccccc3o2)c(OC)c1`: 44.6 kMESF (inactive).

`O=C(O)c1cccc(S(=O)(=O)Nc2ccc(S(=O)(=O)N3CCOCC3)cc2)c1`: the GFP fluorescence (kMESF) is 36.9 kMESF (inactive).

In the case of `C=CCOc1cccc(C(=O)/C=C2/C(=O)Nc3ccccc32)c1`, the GFP fluorescence (kMESF) was 43.2 kMESF (inactive). The same measure for `CCN(CC)c1ccc2cc(-c3nc4ccccc4[nH]3)c(=O)oc2c1`: 48.4 kMESF (inactive). Take `CCC1(c2ccccc2)ON(c2c(Br)cccc2Br)C1=O` (stereo not drawn): the GFP fluorescence (kMESF) was 28.9 kMESF (inactive). For `O/C=c1\ccc2cccc3nc(C(F)(F)F)nc1c23` the value was 40.7 kMESF (inactive); for `Cc1ccc(NC(=O)ON=C2CCCC2)cc1`, 26.4 kMESF (inactive).

`Cc1nn2c(-c3ccncc3)nnc2c2ccccc12`: the GFP fluorescence (kMESF) was 22.9 kMESF (inactive).

Consider `O=C(Nc1ccc(NC(=O)c2cc3ccccc3o2)cc1)c1ccc2c(c1)OCCO2`, for which the GFP fluorescence (kMESF) was 42.8 kMESF (inactive).

`COc1ccccc1N=Nc1ccc(O)c2ncccc12`: the GFP fluorescence (kMESF) is 49.5 kMESF (inactive). Consider `O=C1c2ccccc2C(=O)N1OS(=O)(=O)c1ccccc1`, for which the GFP fluorescence (kMESF) is 29.6 kMESF (inactive).

Turning to `COc1ccccc1[C@]1(C)ON(c2ccccc2C(F)(F)F)C1=O`, the GFP fluorescence (kMESF) was 30.3 kMESF (inactive).

In the case of `O=C1C=CC(=O)N1c1ccc(O)cc1`, the GFP fluorescence (kMESF) was 48.3 kMESF (inactive). Take `CN1C(=O)/C(=N\OC(=O)c2cccc3ccccc23)c2ccccc21`: the GFP fluorescence (kMESF) is 38.2 kMESF (inactive).

Consider `Cc1ccc(/C(N)=N/OC(=O)c2ccc(F)cc2)cc1`, for which the GFP fluorescence (kMESF) was 23.1 kMESF (inactive).

Consider `Cc1cccc(NC(c2ccc(C)s2)c2ccc3ccc(C)nc3c2O)n1` (stereo not drawn), for which the GFP fluorescence (kMESF) is 32.5 kMESF (inactive).

For `O=C1CC(c2ccccc2)=NN1c1nc(-c2ccccc2)cs1`, the GFP fluorescence (kMESF) was 26 kMESF (inactive). For `Cc1ccc(S(=O)(=O)N2CCCC2C(=O)NCc2ccncc2)cc1` (stereo not drawn), the GFP fluorescence (kMESF) was 32.1 kMESF (inactive). For `Cc1ccsc1/C=N/Nc1ncc(Cl)cc1Cl` the value was 36 kMESF (inactive); for `O=C(O)C1Sc2[nH]c(=O)sc2C2c3cc(Br)ccc3OC(=O)C12` (stereo not drawn), 38.7 kMESF (inactive); for `O=C(Nc1nc(-c2ccccn2)cs1)C1COc2ccccc2O1` (stereo not drawn), 26.3 kMESF (inactive). In the case of `CC1=NOC(=O)/C1=C\c1ccc(-c2cc(Cl)ccc2Cl)o1`, the GFP fluorescence (kMESF) is 42.3 kMESF (inactive). With `CC(C)(C)n1nc(-c2ccc(Cl)cc2)c2c(N)ncnc21`, the GFP fluorescence (kMESF) is 39.9 kMESF (inactive). Turning to `O=[N+]([O-])c1ccc(N=Nc2c(Cl)cc(O)cc2Cl)cc1`, the GFP fluorescence (kMESF) is 41.8 kMESF (inactive). Regarding `Cc1c(C(=O)Nc2nc(-c3ccccn3)cs2)oc2ccccc12`, the GFP fluorescence (kMESF) was 35.6 kMESF (inactive). For `Cc1ccnc(N2C(=O)c3cccc4c([N+](=O)[O-])ccc(c34)C2=O)c1` the value was 54.7 kMESF (inactive). With `COc1cccc2c(=O)c(C(=O)NCc3cccs3)c[nH]c12`, the GFP fluorescence (kMESF) was 35.4 kMESF (inactive). As to `Cc1nn2c(NCc3ccccn3)c3c(nc2c1-c1ccccc1)CCC3`, the GFP fluorescence (kMESF) is 40.6 kMESF (inactive). For the molecule `O=c1c2cnn(-c3ccccc3)c2ncn1Cc1ccco1`, the GFP fluorescence (kMESF) is 29.6 kMESF (inactive). `COc1cccc(/C=C/C(=O)c2c(O)cc(C)oc2=O)c1O`: the GFP fluorescence (kMESF) was 43.2 kMESF (inactive). The same measure for `O=C(/C=C/c1ccccc1)c1cc(Br)ccc(=O)c1O`: -1.01 kMESF (inactive); for `O=S(=O)(/N=C(/Sc1ccccc1)c1ccccc1)c1ccccc1`: 41 kMESF (inactive); for `COc1cc(/C=C2\C(=O)N(CCC#N)N=C2C)c(Br)cc1OC(C)C`: 43.5 kMESF (inactive). As to `O=C(Nc1ccccc1)c1nnsc1S(=O)(=O)c1ccc(Cl)cc1`, the GFP fluorescence (kMESF) was 38.4 kMESF (inactive).

`CCCCC(=O)NNC(=S)NC(=O)c1ccc(C)cc1`: the GFP fluorescence (kMESF) was 58.2 kMESF (inactive). For `O=C1ON=C(c2ccccc2)/C1=C/c1ccco1` the value was 41.7 kMESF (inactive). With `CCCc1cc(N2CCN(c3ccccn3)CC2)n2nc(C)c(-c3ccccc3)c2n1`, the GFP fluorescence (kMESF) was 38.8 kMESF (inactive).

On to `O=c1cc(CSc2ccc(Cl)cc2)nc(-c2ccccn2)[nH]1`, for which the GFP fluorescence (kMESF) was 25.7 kMESF (inactive). Take `Cc1[nH]c(-c2ccccn2)nc(=S)c1Cl`: the GFP fluorescence (kMESF) is 51 kMESF (inactive). For the molecule `COc1ccccc1NC1=C(Cl)C(=O)N(c2ccccc2)C1=O`, the GFP fluorescence (kMESF) is 33 kMESF (inactive). For `COc1ccc(C(=O)/C=C2/C(=O)Nc3ccccc32)cc1`, the GFP fluorescence (kMESF) was 44.8 kMESF (inactive).

For the molecule `Cc1sc(/C=C2\C(=O)ON=C2c2ccccc2)cc1Br`, the GFP fluorescence (kMESF) was 34 kMESF (inactive). For `O=C1CCN(S(=O)(=O)c2ccccc2)CCN1CCOCc1ccc(F)cc1` the value was 33.5 kMESF (inactive). As to `Cc1ccc(N=Nc2ccc(O)c3ncccc23)cc1`, the GFP fluorescence (kMESF) was 35.1 kMESF (inactive).

`COc1cc(/C=C/c2ccc3c(Br)cc(Br)c(O)c3n2)ccc1O`: the GFP fluorescence (kMESF) is 27.7 kMESF (inactive).

With `CCOC(=O)c1c(C)oc2c1c(C(c1ccncc1)N1CCOCC1)c(O)c1ccccc12` (stereo not drawn), the GFP fluorescence (kMESF) was 21.4 kMESF (inactive). For `Cc1cccc(OCCN2CSC(=S)N(C)C2)c1` the value was 46.6 kMESF (inactive); for `O=C1Oc2ccccc2C(=O)/C1=C/c1ccccc1O`, 39.4 kMESF (inactive).

With `Cc1cccc(C(=O)NNC(=S)NC(=O)c2ccccc2)c1`, the GFP fluorescence (kMESF) is 44.8 kMESF (inactive).

Turning to `CC(=O)Oc1cccc(N2C(=O)c3cccc4c([N+](=O)[O-])ccc(c34)C2=O)c1`, the GFP fluorescence (kMESF) is 31.2 kMESF (inactive). Turning to `O=c1oc2cc(Oc3c([N+](=O)[O-])cc(C(F)(F)F)cc3[N+](=O)[O-])ccc2c2c1CCCC2`, the GFP fluorescence (kMESF) is 40 kMESF (inactive). In the case of `COCCN1C(=O)/C(=C/c2ccc(N3CCCC3)cc2C)SC1=S`, the GFP fluorescence (kMESF) was 44.5 kMESF (inactive). For the molecule `Cc1cc(C)c(C)c(S(=O)(=O)ON2C(=O)c3ccccc3C2=O)c1C`, the GFP fluorescence (kMESF) was 40 kMESF (inactive). The same measure for `CCOC(=O)CSC1=NC(=O)/C(=C/c2ccc(OC)cc2)S1`: 43.4 kMESF (inactive); for `COc1ccc(C(=O)NC(=S)NNC(=O)c2cnccn2)cc1`: 42.8 kMESF (inactive).

As for `Oc1ccc(N=Nc2ccccc2)o1`, the GFP fluorescence (kMESF) is 49 kMESF (inactive).

With `O=C1C=CC(=O)N1c1ccc(Sc2ccc([N+](=O)[O-])cc2)cc1`, the GFP fluorescence (kMESF) was 38.7 kMESF (inactive). For `COc1ccc(CCNC2=C(Cl)C(=O)N(CCc3ccccc3)C2=O)cc1OC` the value was 42 kMESF (inactive); for `C=CCn1c(C)c(/C=C/c2cc[n+](C)cc2)c2ccccc21`, 42.5 kMESF (inactive).

As to `CCOC(=O)C1=C(O)c2ccccc2C(=O)/C1=C\c1ccc(C)cc1`, the GFP fluorescence (kMESF) is -4.85 kMESF (inactive). Regarding `COc1ccccc1C(=O)NNC(=S)NC(=O)c1cccs1`, the GFP fluorescence (kMESF) was 48 kMESF (inactive). Consider `CCOc1ccc(NC2=C(Cl)C(=O)N(Cc3ccccc3)C2=O)cc1`, for which the GFP fluorescence (kMESF) is 41.3 kMESF (inactive). `CC(C)(C)C(=O)NC(=S)NNC(=O)c1sc2ccccc2c1Cl`: the GFP fluorescence (kMESF) is 34.2 kMESF (inactive). Turning to `Cc1c(NC2=C(Cl)C(=O)N(c3ccccc3Cl)C2=O)c(=O)n(-c2ccccc2)n1C`, the GFP fluorescence (kMESF) was 38.1 kMESF (inactive). With `C#CCOc1c(Br)cc(/C=C2/C(=O)ON=C2C)cc1OC`, the GFP fluorescence (kMESF) was 27.6 kMESF (inactive).

Take `CC(=O)Oc1oc(-c2ccccc2)nc1C=Nc1ccccc1`: the GFP fluorescence (kMESF) is 33.5 kMESF (inactive).

With `CC(=O)Oc1oc(-c2ccccc2)nc1C=Nc1ccc(N(C)C)cc1`, the GFP fluorescence (kMESF) is 43.2 kMESF (inactive).

As to `Cc1c(Cc2ccccc2)c(NCCN(C)C)n2c(nc3ccccc32)c1C#N`, the GFP fluorescence (kMESF) is 45.4 kMESF (inactive). The same measure for `CCCCCn1c(=O)c(C(=O)Nc2nc3ccccc3[nH]2)c(O)c2ccccc21`: 36.9 kMESF (inactive); for `Cc1ccc(S(=O)(=O)c2ccc([N+](=O)[O-])cn2)cc1`: 40.7 kMESF (inactive); for `COc1ccc(C2=CC3=C(Br)C(=O)C(C)(O)C(=O)C3=CO2)cc1` (stereo not drawn): 2.12 kMESF (inactive). For `Cc1cc2ccccn2c1C(=O)c1ccc([N+](=O)[O-])o1` the value was 26 kMESF (inactive).

Source of the values: PubChem BioAssay AID2743 (NMMLSC, 2010).
